According to US7825110B2, “Substituted spiroheterocycles” (Janssen Pharmaceutica NV, priority 2006, dated 2010):

Columns and labels:
human V2 receptor [1] = molecular target: T1, human V2 receptor (Homo sapiens, UniProt P30518); assay: V2 vasopressin receptor functional activity (cAMP accumulation, V2-HEK cells); type: cell-based; design: expressed in transfected cells; host or cells: HEK-293; details: block of vasopressin-stimulated cAMP accumulation in V2-HEK cells
Procedure: The V2 receptor is also a G-protein coupled receptor which when activated induces an increase in cAMP turnover. Antagonism against the V2 receptor is determined by measuring cAMP accumulation in transfected HEK-293 cells expressing the human V-2 receptor (V2-HEK cells). Compounds are tested for their ability to block the stimulatory effects of vasopressin on cAMP accumulation. The cell content of cAMP is measured by radioimmunoassay using NEN flashplates.

human V1a receptor [2] = molecular target: T2, human V1a receptor (Homo sapiens, UniProt P37288); assay: In-vitro binding assay, 3H-arginine-8-vasopressin, V1a; details: for IC50: membrane containing human V1a receptor, displacement of H3 vasopressin; for inhibition at 0.2 µM: 0.2 μM test compound, read-out: V1a (binding), Percent inhibition at 0.2 μM
Procedure: (§1) Assay buffer is 50 mM Tris-Cl, 5 mM MgCl2, 0.1% BSA (pH 7.5) containing 5 μg/ml of aprotinin, leupeptin, pepstatin, 50 μg/ml bacitracin, and 1 mM Pefabloc (4-(2-Aminoethyl)-benzenesulfonyl fluoride, hydrochloride manufactured by Roche Diagnostics Corporation, Indianapolis, Ind. and distributed by Boehringer Mannheim). H3 vasopressin is ^3H-arginine-8-vasopressin (NEN Life Sciences, Boston, Mass.; 68.5 Ci/mmol, final concentration in assay is 0.65-0.75 nM). Into wells of 96-well round bottom polypropylene plates are added buffer, test compound, membrane (containing human V1a or V2 receptor), and H3 vasopressin. The reaction plates are allowed to sit at room temperature for one hour. The samples are filtered through Unifilter GF/C plates (PerkinElmer Life Sciences, Boston, Mass.) presoaked in […]. The plates are washed 5 times with cold physiological saline containing 0.05% Tween 20. After drying, the bottom of the filter plates
(§2) [formula] are sealed and 0.025 ml of Microscint-20 (Packard Instrument Co, Meriden, Conn.) is added to each filter. The top of the plate is sealed, and the plate is counted. Non-specific binding is determined by the addition of 1.25 μM arginine-8-vasopressin in those wells. % Inh. is calculated as follows: […]

human V2 receptor [3] = molecular target: T1, human V2 receptor; assay: In-vitro binding assay, 3H-arginine-8-vasopressin, V2; details: for IC50: membrane containing human V2 receptor, displacement of H3 vasopressin; for inhibition at 0.2 µM: 0.2 μM test compound, read-out: V2 (binding), Percent inhibition at 0.2 μM
Procedure: as §1, §2

human V1a receptor [4] = molecular target: T2, human V1a receptor; assay: V1a vasopressin receptor functional activity (intracellular calcium mobilization, FLIPR, V1a-HEK cells); type: cell-based; details: antagonism of vasopressin-induced calcium mobilization in V1a-HEK cells
Procedure: The V1a receptor is a G-protein coupled receptor, which upon activation triggers an increase in intracellular calcium mobilization. To evaluate compounds for their functional V1a receptor activity, HEK-293 cells were transfected with the human V1a receptor (V1a-HEK cells). HEK-293 cells were grown in DMEM (Dulbecco's modified Eagle Media) supplemented with 10% FBS and glutamine. HEK-cells were passed biweekly by trypsinization and seeded into 96 well plates at 33,000 cells per well. HEK-293 cells were transfected with human V1a receptor DNA using DMRIE-C reagent from Life Technologies (Carlsbad, Calif.). Stable lines were generated by selecting cells grown in culture media containing geneticin. After growing in Packard Clear-View black 96 well plates for 4-6 days, V1a-HEK cells were loaded with the calcium-sensitive fluorescence dye, FLUO-3 AM. Changes in intracellular calcium mobilization were measured by quantitating intracellular fluorescence using FLIPR (Fluorometric Imaging Plate Reader; Molecular Devices, Sunnyvale, Calif.). Test compounds were first added to the cells and the resulting changes in fluorescence measured to detect receptor agonistic activity. Five minutes later the cells were challenged with vasopressin to test compounds for their antagonistic activity. Receptor antagonists inhibit the ability of vasopressin to stimulate increases in intracellular fluorescence. IC50's were calculated.

T2 sequence (P37288 whole entry): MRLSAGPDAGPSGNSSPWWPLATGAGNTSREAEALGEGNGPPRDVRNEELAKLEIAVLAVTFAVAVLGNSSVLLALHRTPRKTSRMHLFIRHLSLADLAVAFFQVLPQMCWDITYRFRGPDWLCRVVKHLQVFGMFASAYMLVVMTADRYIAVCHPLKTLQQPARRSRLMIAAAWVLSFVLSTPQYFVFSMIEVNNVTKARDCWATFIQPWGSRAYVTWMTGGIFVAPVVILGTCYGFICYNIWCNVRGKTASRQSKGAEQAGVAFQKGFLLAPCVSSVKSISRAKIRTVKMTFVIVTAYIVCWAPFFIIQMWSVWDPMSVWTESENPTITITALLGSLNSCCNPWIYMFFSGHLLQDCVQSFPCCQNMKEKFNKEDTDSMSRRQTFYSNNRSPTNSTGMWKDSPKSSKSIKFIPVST
T1 sequence (P30518 whole entry): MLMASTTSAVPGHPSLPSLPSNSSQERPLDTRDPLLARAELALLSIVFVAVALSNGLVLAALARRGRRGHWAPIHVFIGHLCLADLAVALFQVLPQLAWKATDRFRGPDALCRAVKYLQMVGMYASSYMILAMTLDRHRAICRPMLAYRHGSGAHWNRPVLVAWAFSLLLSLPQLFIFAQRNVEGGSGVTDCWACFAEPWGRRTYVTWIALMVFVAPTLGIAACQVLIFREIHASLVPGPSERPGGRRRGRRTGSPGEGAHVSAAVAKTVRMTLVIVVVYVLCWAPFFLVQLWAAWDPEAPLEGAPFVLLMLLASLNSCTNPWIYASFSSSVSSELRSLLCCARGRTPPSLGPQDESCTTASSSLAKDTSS

Structure (SMILES) | IC50 (human V2 receptor [1]) [µM] | IC50 (human V1a receptor [2]) [nM] | IC50 (human V2 receptor [3]) [nM] | IC50 (human V1a receptor [4]) [µM] | inhibition at 0.2 µM (human V1a receptor [2]) [%] | inhibition at 0.2 µM (human V2 receptor [3]) [%]
CN1CCCC2(CCN(C(=O)c3ccc(NC(=O)c4ccccc4-c4ccccc4)cc3)c3ccccc3C2)C1 (centres unmarked) [Compound 10, [1,1′-Biphenyl]-2-carboxamide, N-[4-[(2,3-dihydro-1′-methyl-spiro{4H-1-benzazepine-4,3′-piperidin}-1(5H)-yl)carbonyl]phenyl}-] | 0.064 | 15 | 29 | 0.08 |  | 
CCOC(=O)CC(=O)N1CCC2(CCN(C(=O)c3ccc(NC(=O)c4ccccc4-c4ccccc4)cc3)c3ccccc3C2)C1 (centres unmarked) [Compound 25, [1,1′-Biphenyl]-2-carboxamide, N-[4-[(2,3-dihydro-1′-pyruvic acid-spiro{4H-1-benzazepine-4,3′-pyrrolidin}-1(5H)-yl)carbonyl]phenyl}-, ethyl ester] | 0.306 |  |  |  | 35 | 77
O=C(O)CC(=O)N1CCC2(CCN(C(=O)c3ccc(NC(=O)c4ccccc4-c4ccccc4)cc3)c3ccccc3C2)C1 (centres unmarked) [Compound 26] | 0.272 |  |  |  | 23 | 83
CC(=O)N1CCC2(CCN(C(=O)c3ccc(NC(=O)c4ccccc4-c4ccccc4)cc3)c3ccccc3C2)C1 (centres unmarked) [Compound 27, [1,1′-Biphenyl]-2-carboxamide, N-[4-[(2,3-dihydro-1′-acetyl-spiro{4H-1-benzazepine-4,3′-pyrrolidin}-1(5H)-yl)carbonyl]phenyl}-] | 0.182 |  |  | 0.21 | 61 | 78
O=C(Nc1ccc(C(=O)N2CCC3(CCN(C4CCCC4)C3)Cc3ccccc32)cc1)c1ccccc1-c1ccccc1 (centres unmarked) [Compound 18] |  |  |  |  | 66 | 70
CN1CCCC2(CCN(C(=O)c3ccc(NC(=O)c4cc(F)ccc4Cl)cc3)c3ccccc3C2)C1 (centres unmarked) [Compound 8, Benzamide, 2-chloro-N-[4-{(2,3-dihydro-1′-methyl-spiro[4H-1-benzazepine-4,3-piperidin}-1(5H)-yl)carbonyl}phenyl]-5-fluoro] | 0.46 | 12 |  | 0.01 |  | 52
COC(=O)CN1CCC2(CCN(C(=O)c3ccc(NC(=O)c4ccccc4-c4ccccc4)cc3)c3ccccc3C2)C1 (centres unmarked) [Compound 22, [1,1′-Biphenyl]-2-carboxamide, N-[4-[(2,3-dihydro-1′-acetic acid-spiro{4H-1-benzazepine-4,3′-pyrrolidin}-1(5H)-yl)carbonyl]phenyl}-, methyl ester] | 0.049 |  | 110 | 0.4 | 66 | 
CN(C)CC(=O)N1CCC2(CCN(C(=O)c3ccc(NC(=O)c4ccccc4-c4ccccc4)cc3)c3ccccc3C2)C1 (centres unmarked) [Compound 28, [1,1′-Biphenyl]-2-carboxamide, N-[4-[(2,3-dihydro-(1′-(2-(dimethylamino)acetyl))spiro{4H-1-benzazepine-4,3′-pyrrolidin}-1(5H)-yl)carbonyl]phenyl]-;] |  | 260 |  |  |  | 
CCOC(=O)CN1CCC2(CCN(C(=O)c3ccc(NC(=O)c4ccccc4-c4ccccc4)cc3)c3ccccc3C2)C1 (centres unmarked) [Compound 23, [1,1′-Biphenyl]-2-carboxamide, N-[4-[(2,3-dihydro-1′-acetic acid-spiro{4H-1-benzazepine-4,3′-pyrrolidin}-1(5H)-yl)carbonyl]phenyl}-, ethyl ester] | 0.673 |  |  | 0.78 | 75 | 58
